Measured values taken from patent publication US10144715B2, “Piperazine derivatives as liver X receptor modulators” (priority 2014, dated 2018).
Where two headings read alike, the source gives them in different places.

What was measured:
[1] = target: Gal4 DNA binding domain fused to the LBD of LXRα in HEK293 cells (Homo sapiens (Human), UniProt Q13133); test: LXR luciferase transcriptional reporter gene assay, agonist mode, LXRα; format: cell-based; conditions: for EC50: read-out: Cell LXRα EC50
Sequence of Gal4 DNA binding domain fused to the LBD of LXRα in HEK293 cells (Q13133 209-447): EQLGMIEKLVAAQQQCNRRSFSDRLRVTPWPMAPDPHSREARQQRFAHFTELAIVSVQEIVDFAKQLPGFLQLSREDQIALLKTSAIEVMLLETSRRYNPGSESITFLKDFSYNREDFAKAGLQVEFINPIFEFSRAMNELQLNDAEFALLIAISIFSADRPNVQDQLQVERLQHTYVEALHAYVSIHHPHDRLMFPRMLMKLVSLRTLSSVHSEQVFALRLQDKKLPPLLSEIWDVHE

[2] = target: T1, LXR α LBD protein (Homo sapiens (Human), UniProt Q13133); test: Human LXRα coactivator recruitment FRET assay, agonist mode; format: biochemical
T1 sequence (Q13133 209-447): as above
Protocol: Two μL of the DMSO solutions were transferred to the plate and 38 μL of 10 nM LXRα-LBD or LXRβ-LBD (2×) were added immediately to the wells. The plate was shaken for 5 min at rt on an orbital micro shaker (DPC MicroMix® 5), after which 40 μL of 200 nM fluorescein-SRC2-3 peptide and 20 nM Terbium-anti-GST-antibody (Cat# PV3550, Life Technologies, Grand Island, N.Y.) solution (4×) were added to all. The plate was sealed and shaken for 2 min at rt, and incubated at rt for 2 h without agitation. […] The delay and window times were set at 100 and 200 microseconds, respectively. […] The percent control vs. compound concentration data were fit into a four-parameter model, and EC50 values were calculated from the fit as the concentrations corresponding to the inflection points on the concentration-response curves.

[3] = target: T1, LXR α LBD protein; test: LXR α radioligand binding assay (SPA, competition with [3H]TO901317); conditions: read-out: LXRα Binding Ki
[4] = target: LXR β LBD protein (Homo sapiens (Human), UniProt P55055); test: biochemical; format: binding; conditions: read-out: LXRβ Binding Ki
Sequence of LXR β LBD protein (P55055 222-460 limits assumed): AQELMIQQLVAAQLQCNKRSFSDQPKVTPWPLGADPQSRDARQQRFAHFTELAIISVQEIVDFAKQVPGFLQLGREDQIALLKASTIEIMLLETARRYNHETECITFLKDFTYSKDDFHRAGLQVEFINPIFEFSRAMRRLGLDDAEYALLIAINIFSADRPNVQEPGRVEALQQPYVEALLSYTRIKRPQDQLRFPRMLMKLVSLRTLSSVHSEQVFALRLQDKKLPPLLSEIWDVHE

[5] = target: Gal4 DNA binding domain fused to the LBD of LXRβ in HEK293 cells (Homo sapiens (Human), UniProt P55055); test: cell-based
Sequence of Gal4 DNA binding domain fused to the LBD of LXRβ in HEK293 cells (P55055 222-460 limits assumed): as above

[6] = Biological Test Example 2, agonist mode
[7] = Biological Test Example 3, agonist mode

Row | SMILES | Cell LXRα efficacy [1] | EC50 [1] [nM] | FRET LXRα efficacy ([2]; agonist mode) [%] | Ki [3] [nM] | Ki [4] [nM] | EC50 [5] [nM] | Cell LXRβ efficacy [5] | also measured
1 | CS(=O)(=O)c1cccc(N2CCN(C[C@H]3CC[C@@H](C(F)F)CC3)[C@H](c3ccccc3)C2)c1 (single isomer, unassigned) [48-16] | 2437 (10) % | 2440 | 17 |  |  |  |  | EC50 ([2]; agonist mode): 2450 nM
2 | CS(=O)(=O)c1cccc(N2CCN(C[C@H]3CC[C@H](C(F)F)CC3)[C@H](c3ccccc3)C2)c1 (single isomer, unassigned) [48-18] | 18796 (7) % | 18800 |  |  |  |  |  | EC50 ([2]; agonist mode): > 50000 nM
3 | CS(=O)(=O)c1cccc(N2CCN(CC3CCN(CC(F)(F)F)CC3)[C@H](c3ccccc3)C2)c1 (single isomer, unassigned) [48-51] |  |  |  |  |  |  |  | EC50 [1, 6]: > 20000 nM; EC50 [2, 7]: 9400 nM; FRET LXRα efficacy [2, 7]: 37%
4 | COC(=O)[C@@H]1CN(c2cccc(S(C)(=O)=O)c2)CCN1C(=O)OC(C)(C)C [1-4, 1-(tert-butyl) 2-methyl (S)-4-(3-(methylsulfonyl)phenyl)piperazine-1,2-dicarboxylate] | 14195 (49) % |  | 67 |  |  |  |  | EC50 ([1]; agonist mode): 14200 nM; EC50 ([2]; agonist mode): 13500 nM
5 | CC(C)(C)OC(=O)N1CCN(c2cccc(S(C)(=O)=O)c2)C[C@@H]1c1ccccc1 [1-6, tert-butyl (S)-4-(3-(methylsulfonyl)phenyl)-2-phenylpiperazine-1-carboxylate] |  |  | 14 |  |  |  |  | EC50 ([1]; agonist mode): > 20000 nM; EC50 ([2]; agonist mode): 8390 nM
6 | CC(C)(C)OC(=O)N1CCN(c2cccc(S(C)(=O)=O)c2)CC1c1ccc(Br)cc1 (stereo not drawn) [1-12, tert-butyl 2-(4-bromophenyl)-4-(3-(methylsulfonyl)phenyl)piperazine-1-carboxylate] |  |  | 46 |  |  |  |  | 
7 | Cc1nc(C(F)(F)F)ccc1CN1CCN(c2cccc(S(C)(=O)=O)c2)CC1c1ccccc1 (stereo not drawn) [46-47, 1-((2-methyl-6-(trifluoromethyl)pyridin-3-yl)methyl)-4-(3-(methylsulfonyl)phenyl)-2-phenylpiperazine] |  |  | 51 |  |  |  |  | 
8 | Cc1cc(CN2CCN(c3cccc(S(C)(=O)=O)c3)CC2c2ccccc2)cnc1C(F)(F)F (stereo not drawn) [46-48, 1-((5-methyl-6-(trifluoromethyl)pyridin-3-yl)methyl)-4-(3-(methylsulfonyl)phenyl)-2-phenylpiperazine] |  |  | 47 |  |  |  |  | 
9 | COC(=O)c1ccc(N2CCN(Cc3ccc(C(F)(F)F)nc3)C(c3ccccc3)C2)cc1S(C)(=O)=O (stereo not drawn) [46-59, methyl 2-(methylsulfonyl)-4-(3-phenyl-4-((6-(trifluoromethyl)pyridin-3-yl)methyl)piperazin-1-yl)benzoate] |  |  | 109 |  |  |  |  | 
10 | CC(C)[C@@H]1CN(c2ccc(F)c(S(C)(=O)=O)c2)CCN1c1nc(C(F)(F)F)c(C(C)(C)O)s1 [Cpd No 26-1, (R)-2-(2-(4-(4-fluoro-3-(methylsulfonyl)phenyl)-2-isopropylpiperazin-1-yl)-4-(trifluoromethyl)thiazol-5-yl)propan-2-ol] | 584 (102) % |  |  | 111 | 5 | 185 |  | EC50 ([1]; agonist mode): 584 nM; Cell LXRβ efficacy ([5]; agonist mode): 185 (98) %
11 | Cc1csc(-c2ccc(N3CCN(c4ncc(CO)c(C(F)(F)F)n4)[C@H](C(C)C)C3)cc2S(C)(=O)=O)n1 [Cpd No 28-1, (R)-(2-(2-isopropyl-4-(3-(methylsulfonyl)-4-(4-methylthiazol-2-yl)phenyl)piperazin-1-yl)-4-(trifluoromethyl)pyrimidin-5-yl)methanol] | 66 (80) % |  |  | 29 | 3 | 11 |  | EC50 ([1]; agonist mode): 66 nM; Cell LXRβ efficacy ([5]; agonist mode): 11 (79) %
12 | CC(C)[C@@H]1CN(c2ccc(F)c(S(C)(=O)=O)c2)CCN1c1ncc(O)c(C(F)(F)F)n1 [Cpd No 30-1, (R)-2-(4-(4-fluoro-3-(methylsulfonyl)phenyl)-2-isopropylpiperazin-1-yl)-4-(trifluoromethyl)pyrimidin-5-ol] | 3121 (100) % | 3120 |  | 169 | 24 | 729 | 729 (98) % | 
13 | CC(C)[C@@H]1CN(c2ccc(F)c(S(C)(=O)=O)c2)CCN1c1ncc(C(F)(F)F)c(C(C)(C)O)n1 [Cpd No 39-1, (R)-2-(2-(4-(4-fluoro-3-(methylsulfonyl)phenyl)-2-isopropylpiperazin-1-yl)-5-(trifluoromethyl)pyrimidin-4-yl)propan-2-ol] | 327 (96) % | 327 |  | 53 | 2 | 86 |  | Cell LXRβ efficacy ([5]; agonist mode): 86 (62) %
14 | CC(C)[C@@H]1CN(c2ccc(F)c(S(C)(=O)=O)c2)CCN1c1ncc(C(O)C(F)(F)F)cn1 (stereo partly drawn) [Cpd No 41-1, 2,2,2-trifluoro-1-(2-((R)-4-(4-fluoro-3-(methylsulfonyl)phenyl)-2-isopropylpiperazin-1-yl)pyrimidin-5-yl)ethan-1-ol] | 3334 (36) % | 3330 |  | 1120 | 92 | 305 | 305 (19) % | 
15 | COC(c1cnc(N2CCN(c3ccc(F)c(S(C)(=O)=O)c3)C[C@H]2C(C)C)nc1)C(F)(F)F (stereo partly drawn) [Cpd No 42-1, 2-((R)-4-(4-fluoro-3-(methylsulfonyl)phenyl)-2-isopropylpiperazin-1-yl)-5-(2,2,2-trifluoro-1-methoxyethyl)pyrimidine] | 763 (48) % | 763 |  | 366 | 33 | 124 | 124 (20) % | 
16 | CC(C)[C@@H]1CN(c2ccc(F)c(S(C)(=O)=O)c2)CCN1c1ccnc(OC(F)F)c1 [Cpd No 44-1, (R)-1-(2-(difluoromethoxy)pyridin-4-yl)-4-(4-fluoro-3-(methylsulfonyl)phenyl)-2-isopropylpiperazine] | 258 (99) % | 258 |  | 45 | 7 | 70 | 70 (83) % | 
17 | CC(C)[C@H]1CN(c2ccc(CO)c(S(C)(=O)=O)c2)CCN1CC1CCC(O)(C(F)(F)F)CC1 (stereo partly drawn) [Cpd No 48-38, (S)-4-((4-(4-(hydroxymethyl)-3-(methylsulfonyl)phenyl)-2-isopropylpiperazin-1-yl)methyl)-1-(trifluoromethyl)cyclohexan-1-ol] | 106 (86) % | 106 |  | 244 | 27 | 30 |  | Cell LXRβ efficacy ([5]; agonist mode): 30 (81) %
18 | CC(C)[C@H]1CN(c2ccc(CO)c(S(C)(=O)=O)c2)CCN1C[C@H]1CC[C@@H](C(F)(F)F)OC1 [Cpd No 49-1, (4-((S)-3-isopropyl-4-(((3R,6S)-6-(trifluoromethyl)tetrahydro-2H-pyran-3-yl)methyl)piperazin-1-yl)-2-(methylsulfonyl)phenyl)methanol] | 195 (64) % | 195 |  | 356 | 37 | 110 | 110 (94) % | 
19 | CC(C)[C@H]1CN(c2ccc(CO)c(S(C)(=O)=O)c2)CCN1C[C@@H]1CC[C@@H](C(F)(F)F)OC1 [Cpd No 49-3, (4-((S)-3-isopropyl-4-(((3S,6S)-6-(trifluoromethyl)tetrahydro-2H-pyran-3-yl)methyl)piperazin-1-yl)-2-(methylsulfonyl)phenyl)methanol] | 178 (75) % | 178 |  | 166 | 17 | 58 | 58 (78) % | 
20 | CC(C)[C@H]1CN(c2ccc(CO)c(S(C)(=O)=O)c2)CCN1C[C@@H]1CC[C@H](C(F)(F)F)OC1 [Cpd No 49-4, (4-((S)-3-isopropyl-4-(((3S,6R)-6-(trifluoromethyl)tetrahydro-2H-pyran-3-yl)methyl)piperazin-1-yl)-2-(methylsulfonyl)phenyl)methanol] | 27 (80) % | 27 |  | 44 | 7 | 20 | 20 (101) % | 
21 | CC(C)[C@H]1CN(c2cccc(S(C)(=O)=O)c2)CCN1CC1CCCOC1 (stereo partly drawn) [Cpd No 51-1, (2S)-2-isopropyl-4-(3-(methylsulfonyl)phenyl)-1-((tetrahydro-2H-pyran-3-yl)methyl)piperazine] | 7863 (36) % | 7860 |  | > 3330 | 1530 | 673 | 673 (32) % | 
22 | CC(C)[C@H]1CN(c2cccc(S(C)(=O)=O)c2)CCN1CC1CCC(C(F)(F)F)N(C)C1 (stereo partly drawn) [Cpd No 52-1, (2S)-2-isopropyl-1-((1-methyl-6-(trifluoromethyl)piperidin-3-yl)methyl)-4-(3-(methylsulfonyl)phenyl)piperazine] | 137 (95) % | 137 |  | 144 |  | 46 |  | Ki ([4]; Biological Test Example 1): 19 nM; Cell LXRβ efficacy [5, 6]: 46 (74) %
